Where a name gives a salt, the structure may show the parent alone.
target: human recombinant FKBP-12 (Homo sapiens, UniProt P62942); assay: coupled colorimetric PPIase (rotamase) assay, FKBP-12; assay type: biochemical; details: succinyl-AFPF-pNA substrate, chymotrypsin-coupled, 10° C., pH 8.0; read-out: IC50 for inhibition of the FKBP-12 enzyme
Source text: The affinity of the compounds of the formula (I) for FKBP-12 can be determined in vitro in a coupled calorimetric PPlase assay using similar procedures to published methods (e.g. see Kofron, J. L., et al., Biochemistry, 1991,30, 6127-6134, Zarnt, T., et al., Biochem. J. 1995, 305, 159-164, Holt, D. A., et al., J. Am. Chem. Soc., 1993, 115, 9925-9938). In these methods, the cis-trans isomerisation of a hydrophobic amino acid-proline bond in a tetrapeptide substrate (e.g. the phenylalanine-proline bond in N-succinyl-ala-phe-pro-phe-p-nitroanilide [succinyl-AFPF-pNA]) can be determined by monitoring cleavage of pNA from the transPro-containing peptide by an excess of chymotrypsin.
The IC50 (the concentration of the compound of the formula (I) producing 50% inhibition) values were determined using the following assay methodology. Assay buffer (2.175 ml) (50 mM 4-(2-hydroxyethyl)-1-piperazineethanesulphonic acid (HEPES), 100 mM NaCl, 1 mM dithiothreitol (DTT), pH 8.0) is equilibrated to 10° C. in a cuvette. 12.5 μl of a solution of the present compound in DMSO, 250 μl of a 60 mg/ml solution of α-chymotrypsin in 1 mM aqueous hydrochloric acid and then 50 μl of a solution of human recombinant FKBP-12 (4.5 μM) in assay buffer are added and mixed. The reaction is initiated by addition of 12.5 μl of a solution of 20 mM succinyl-AFPF-pNA in DMSO. The absorbance at 390 nm is monitored for one minute collecting data every 0.25 second. Data are fitted with a first order rate equation with offset and the rate constant obtained corrected for the rate of uncatalysed isomerisation of the substrate. The rate constant determined at different inhibitor concentrations (10 nM to 100 μM) is expressed as % inhibition of the control rate constant. The IC50 is estimated using a non-linear least squares curve fitting routine of the sigmoidal dose response data.

human recombinant FKBP-12, sequence (P62942 whole entry): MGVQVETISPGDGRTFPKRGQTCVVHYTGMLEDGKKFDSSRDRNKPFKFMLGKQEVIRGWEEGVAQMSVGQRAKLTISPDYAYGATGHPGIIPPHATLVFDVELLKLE

IC50 [nM]	SMILES
< 1200	O=C(N[C@H]1CCN(Cc2ccccc2)C1)[C@@H]1CCCCN1c1nc2ccccc2o1 [Example 2, (2S)-1-(1,3-Benzoxazol-2-yl)-N^2-[(3S)-1-benzylpyrrolidin-3-yl]-2-piperidinecarboxamide]
< 1200	O=C(N[C@H]1CCN(Cc2ccccn2)C1)[C@@H]1CCCCN1c1nc2ccccc2o1 [Example 6, (2S)-1-(1,3-Benzoxazol-2-yl)-N^2-[(3S)-1-(2-pyridinylmethyl)pyrrolidin-3-yl]-2-piperidinecarboxamide]
< 1200	O=C(N[C@H]1CCN(Cc2cccnc2)C1)[C@@H]1CCCCN1c1nc2ccccc2o1 [Example 7, (2S)-1-(1,3-Benzoxazol-2-yl)-N^2-[(3S)-1-(3-pyridinylmethyl)pyrrolidin-3-yl]-2-piperidinecarboxamide]
< 1200	O=C(N[C@H]1CCN(Cc2ccncc2)C1)[C@@H]1CCCCN1c1nc2ccccc2o1 [Example 8, (2S)-1-(1,3-Benzoxazol-2-yl)-N^2-[(3S)-1-(4-pyridinylmethyl)pyrrolidin-3-yl]-2-piperidinecarboxamide]
< 1200	NC(=O)c1cccc(CN2CC[C@H](NC(=O)[C@@H]3CCCCN3c3nc4ccccc4o3)C2)c1 [Example 13a, (2S)-N^2-1-{(3S)-1-[3-(Aminocarbonyl)phenylmethyl]pyrrolidin-3-yl}-1-(1,3-benzoxazol-2-yl)-2-piperidinecarboxamide]
< 1200	O=C(N[C@H]1CCN(Cc2ccccc2)C1)[C@@H]1CCCCN1c1nc2ccc(Br)cc2o1 [Example 15, (2S)-N^2-[(3S)-1-Benzylpyrrolidin-3-yl]-1-(6-bromo-1,3-benzoxazol-2-yl)-2-piperidinecarboxamide]
< 1200	O=C(N[C@H]1CCN(Cc2cc3ccccc3nc2Cl)C1)[C@@H]1CCCCN1c1nc2ccccc2o1 [Example 16]
< 1200	O=C(N[C@H]1CCN(Cc2ccnc3ccccc23)C1)[C@@H]1CCCCN1c1nc2ccccc2o1 [Example 17]
< 1200	O=C(N[C@H]1CCN(Cc2ccc3ccccc3n2)C1)[C@@H]1CCCCN1c1nc2ccccc2o1 [Example 18]
< 1200	O=C(N[C@H]1CCN(Cc2cnc3ccccc3c2)C1)[C@@H]1CCCCN1c1nc2ccccc2o1 [Example 19]
< 1200	CC(c1ccnc2ccccc12)N1CC[C@H](NC(=O)[C@@H]2CCCCN2c2nc3ccccc3o2)C1 (stereo partly shown) [Example 20]
< 1200	O=C(N[C@H]1CCN(C(=O)c2ccc3ccccc3n2)C1)[C@@H]1CCCCN1c1nc2ccccc2o1 [Example 21, (2S)-N^2-{(3S)-1-[Quinolin-2-ylcarbonyl]pyrrolidin-3-yl}-1-(1,3-benzoxazol-2-yl)-2-piperidinecarboxamide]
< 1200	O=C(N[C@H]1CCN(C(=O)c2cc(-c3ccccc3)nc3ccccc23)C1)[C@@H]1CCCCN1c1nc2ccccc2o1 [Example 22, (2S)-N^2-{(3S)-1-[2-Phenylquinolin-4-ylcarbonyl]pyrrolidin-3-yl}-1-(1,3-benzoxazol-2-yl)-2-piperidinecarboxamide]
< 1200	COc1cc(C(=O)N2CC[C@H](NC(=O)[C@@H]3CCCCN3c3nc4ccccc4o3)C2)nc2ccccc12 [Example 23, (2S)-N^2-{(3S)-1-[4-Methoxyquinolin-2-ylcarbonyl]pyrrolidin-3-yl}-1-(1,3-benzoxazol-2-yl)-2-piperidinecarboxamide]
< 1200	COc1ccc2nc(-c3ccccc3)cc(C(=O)N3CC[C@H](NC(=O)[C@@H]4CCCCN4c4nc5ccccc5o4)C3)c2c1 [Example 24, (2S)-N^2-{(3S)-1-[6-Methoxy-2-phenylquinolin-4-ylcarbonyl]pyrrolidin-3-yl}-1-(1,3-benzoxazol-2-yl)-2-piperidinecarboxamide]
< 1200	O=C(N[C@H]1CCN(C(=O)c2cc(N3CCCCC3)nc3ccccc23)C1)[C@@H]1CCCCN1c1nc2ccccc2o1 [Example 25, (2S)-N^2-{(3S)-1-[2-Piperidinoquinolin-4-ylcarbonyl]pyrrolidin-3-yl}-1-(1,3-benzoxazol-2-yl)-2-piperidinecarboxamide]
< 1200	O=C(N[C@H]1CCN(C(=O)c2cc(Cl)nc3ccccc23)C1)[C@@H]1CCCCN1c1nc2ccccc2o1 [Example 26, (2S)-N^2-{(3S)-1-[2-Chloroquinolin-4-ylcarbonyl]pyrrolidin-3-yl}-1-(1,3-benzoxazol-2-yl)-2-piperidinecarboxamide]
< 1200	O=C(N[C@H]1CCN(C(=O)c2ccc3cn[nH]c3c2)C1)[C@@H]1CCCCN1c1nc2ccccc2o1 [Example 27, (2S)-N^2-{(3S)-1-[1H-benzpyrazol-6-ylcarbonyl]pyrrolidin-3-yl}-1-(1,3-benzoxazol-2-yl)-2-piperidinecarboxamide]
< 1200	O=C(NC1CCCN(Cc2ccccc2)C1)[C@@H]1CCCCN1c1nc2ccccc2o1 (stereo partly drawn) [Example 30, (2S)-1-(1,3-Benzoxazol-2-yl)-N^2-(1-benzyl-3-piperidinyl)-2-piperidinecarboxamide]
< 1200	O=C(N[C@H]1CN[C@H](COCc2ccccc2)C1)[C@@H]1CCCCN1c1nc2ccccc2o1 [Example 35, (2S)-1-(1,3-Benzoxazol-2-yl)-N^2-(3R,5S)-5-[(benzyloxy)methyl]pyrrolidin-3-yl-2-piperidinecarboxamide hydrochloride]
< 1200	O=C(N[C@H]1CCN(Cc2ccccc2)C1)C1CCCCN1c1nc2ccccc2[nH]1 (stereo partly shown) [Example 41]

target: T1, human recombinant FKBP52 (Homo sapiens, UniProt Q02790); assay: PPIase (rotamase) assay, FKBP-52; assay type: biochemical; details: read-out: IC50 for inhibition of the FKBP-52 enzyme
T1 sequence (Q02790 1-459): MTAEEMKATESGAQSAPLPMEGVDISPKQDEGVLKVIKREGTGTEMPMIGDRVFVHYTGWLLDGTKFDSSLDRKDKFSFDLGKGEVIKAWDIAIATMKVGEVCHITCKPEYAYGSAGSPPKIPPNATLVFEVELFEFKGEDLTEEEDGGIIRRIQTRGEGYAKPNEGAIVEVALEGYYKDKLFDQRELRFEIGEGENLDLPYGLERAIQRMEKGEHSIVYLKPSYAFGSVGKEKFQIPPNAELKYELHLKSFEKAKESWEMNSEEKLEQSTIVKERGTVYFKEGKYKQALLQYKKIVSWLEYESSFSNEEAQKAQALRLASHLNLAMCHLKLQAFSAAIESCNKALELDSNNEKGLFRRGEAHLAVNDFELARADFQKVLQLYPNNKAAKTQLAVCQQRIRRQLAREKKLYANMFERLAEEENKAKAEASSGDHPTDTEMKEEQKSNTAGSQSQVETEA
Description: Assay buffer (2.175 ml) (50 mM HEPES, 100 mM NaCl, 1 mM DTT, pH 8.0) is equilibrated to 10° C. in a cuvette. 12.5 μl of a solution of the present compound in DMSO, 250 μl of a 60 mg/ml solution of α-chymotrypsin in 1 mM aqueous hydrochloric acid and then 50 μL of a solution of human recombinant FKBP-12 (1.5 μM) in assay buffer are added and mixed. The reaction is initiated by adding 1 2.5 μl of a solution of anhydrous succinyl-ALPF-pNA (100 μM final concentration) in a 400 mM solution of LiCl in trifluoroethanol. The absorbance at 390 nm is monitored for 3 minutes collecting data every 0.5 second. Data are fitted with a first order rate equation with offset and the initial velocity (v) is calculated from the concentration of cis (re leu-pro bond)-succinyl-ALPF-pNA at to and the first order rate constant at different inhibitor concentrations (I). Data in the form vinh/vcontrol v. [I] are fitted with an equation for reversible tight binding inhibition to generate values for Ki,app (see Morrison, J. F., et al, Comments Mol. Cell Biophys., 1985, 2, 347-368). This analysis is used when the Ki,app approaches the concentration of FKBP-12 in the assay (30 nM). […] The same methodology is used to generate Ki,app for FKBP52 with the following modifications: Forty microlitres human recombinant FKBP52 (5.2 μM) is substituted for FKBP12 and 2.185 ml assay buffer are used in the assay. […]

IC50 [nM]	SMILES
2790	O=C(N[C@H]1CCN(Cc2ccccc2)C1)[C@@H]1CCCCN1c1nc2ccccc2o1 [Example 2, (2S)-1-(1,3-Benzoxazol-2-yl)-N^2-[(3S)-1-benzylpyrrolidin-3-yl]-2-piperidinecarboxamide]

From US6372736B1, “Heterocyclic compounds as inhibitors of rotamase enzymes” (Pfizer INC, priority 1999, dated 2002)
